Structures are written as SMILES.

The assay addresses T1, T. thermophilus SAM complex (TtSAM; Sam50:Sam35:Sam37) (Thermothelomyces thermophilus, UniProt G2QFF9).
T1 construct: gene MYCTH_2094326; codon-optimized, co-expressed in S. cerevisiae W303.1B; Strep-Tactin purified monomeric 1:1:1 complex in LMNG/GDN or GDN; 10xHis or TwinStrep tags with linkers and TEV sites in some constructs; with Sorting and assembly machinery subunit Sam35; Sorting and assembly machinery subunit Sam37
The assay can be described thus: cryo-EM structure; LC/MS of purified complex. It is filed as binding. As to conditions: co-purified from yeast membranes; modelled on back side of Sam50 barrel and beneath Sam37 cytosolic domain.

T1 sequence (G2QFF9 entry or part of it): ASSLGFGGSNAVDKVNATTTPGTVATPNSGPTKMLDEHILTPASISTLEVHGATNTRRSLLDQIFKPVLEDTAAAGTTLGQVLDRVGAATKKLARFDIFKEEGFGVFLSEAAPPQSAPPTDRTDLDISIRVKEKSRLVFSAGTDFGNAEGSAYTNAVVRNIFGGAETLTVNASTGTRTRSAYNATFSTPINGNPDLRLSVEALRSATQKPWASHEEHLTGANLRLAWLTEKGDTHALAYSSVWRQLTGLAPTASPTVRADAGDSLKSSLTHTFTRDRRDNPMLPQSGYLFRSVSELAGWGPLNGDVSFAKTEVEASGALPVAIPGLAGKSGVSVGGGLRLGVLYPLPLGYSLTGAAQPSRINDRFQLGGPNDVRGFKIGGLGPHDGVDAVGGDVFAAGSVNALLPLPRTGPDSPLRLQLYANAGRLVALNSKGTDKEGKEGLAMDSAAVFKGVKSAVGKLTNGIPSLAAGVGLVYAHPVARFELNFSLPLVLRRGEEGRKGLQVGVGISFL
T1 sequence (G2Q6R7 entry or part of it, further chain): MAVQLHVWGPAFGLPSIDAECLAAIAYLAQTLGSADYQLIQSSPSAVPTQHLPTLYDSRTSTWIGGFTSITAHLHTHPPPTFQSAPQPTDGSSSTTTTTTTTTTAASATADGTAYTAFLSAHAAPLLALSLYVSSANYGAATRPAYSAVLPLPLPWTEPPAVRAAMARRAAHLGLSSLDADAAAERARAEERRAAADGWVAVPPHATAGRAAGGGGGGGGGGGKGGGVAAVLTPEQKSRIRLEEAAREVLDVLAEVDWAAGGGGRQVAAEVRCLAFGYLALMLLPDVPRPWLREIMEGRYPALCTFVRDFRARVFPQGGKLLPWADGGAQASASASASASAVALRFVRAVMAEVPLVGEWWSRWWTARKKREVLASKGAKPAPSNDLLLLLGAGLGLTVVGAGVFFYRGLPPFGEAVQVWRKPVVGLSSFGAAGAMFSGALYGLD
T1 sequence (G2QAT9 entry or part of it, further chain): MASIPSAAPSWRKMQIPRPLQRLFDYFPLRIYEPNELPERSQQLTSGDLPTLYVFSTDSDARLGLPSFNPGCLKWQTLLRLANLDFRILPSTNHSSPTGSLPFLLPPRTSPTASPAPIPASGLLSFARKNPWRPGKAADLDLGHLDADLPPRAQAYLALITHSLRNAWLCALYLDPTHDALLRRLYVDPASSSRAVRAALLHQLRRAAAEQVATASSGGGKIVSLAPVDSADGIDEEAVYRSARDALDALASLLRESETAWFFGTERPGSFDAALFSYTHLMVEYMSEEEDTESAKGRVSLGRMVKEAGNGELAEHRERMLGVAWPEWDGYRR

Consider `CC(C)[C@@H](C)/C=C/[C@@H](C)[C@H]1CC[C@H]2C3=CC=C4C[C@@H](O)CC[C@]4(C)[C@H]3CC[C@]12C` [ergosterol], for which the “cryo-EM structure; LC/MS of purified complex” value was “We have modeled these lipids as ergosterol molecules”.
